Here are results for two compounds from US20250388529A1, “N-Substituted Phenylalkylamines and Their Use as Therapeutic Agents” (priority 2023, published 2025).

For assay [1], the target named is T1, 5-HT2A (Homo sapiens, UniProt P28223). The settings on record: [125I]-DOI competition binding; cited from earlier work.
The target of a further assay is rat 5-HT2A receptors (Rattus norvegicus, UniProt P14842). Particulars: [125I]-DOI competition binding; cited from earlier work.
Assay [2] concerns the target T1, 5-HT2A. The settings on record: Ca2+ mobilization; cited from earlier work.
The next assay concerns the target 5-HT2B (Homo sapiens, UniProt P41595). Particulars: Ca2+ mobilization; cited from earlier work.
In assay [3] the target is T1, 5-HT2A. Particulars: cited from earlier work.
Another assay has as its target T2, 5-HT2A receptors (Rattus norvegicus, UniProt P14842).
T2 construct: host or cells: Xenopus oocytes (transient)
The settings on record: Xenopus oocytes; cited from earlier work.

For assay [4] the following is noted: cited from earlier work.
The target in a further assay is human Nav1.1 and Navβ1 (Homo sapiens, UniProt P35498). Nature of the assay: cell-based.

T1 sequence (P28223 whole entry): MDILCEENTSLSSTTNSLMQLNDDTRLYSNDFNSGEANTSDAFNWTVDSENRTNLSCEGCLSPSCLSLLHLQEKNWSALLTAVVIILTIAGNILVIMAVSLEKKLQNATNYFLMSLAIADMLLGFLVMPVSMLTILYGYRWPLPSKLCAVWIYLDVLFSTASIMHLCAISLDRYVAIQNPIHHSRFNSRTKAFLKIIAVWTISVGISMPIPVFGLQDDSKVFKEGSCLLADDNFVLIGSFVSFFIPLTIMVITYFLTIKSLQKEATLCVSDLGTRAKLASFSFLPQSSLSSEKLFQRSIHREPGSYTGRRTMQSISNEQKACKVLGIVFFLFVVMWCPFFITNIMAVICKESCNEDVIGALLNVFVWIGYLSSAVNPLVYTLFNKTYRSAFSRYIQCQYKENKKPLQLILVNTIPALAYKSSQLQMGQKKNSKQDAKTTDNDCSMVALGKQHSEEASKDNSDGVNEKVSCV
Chain of 5-HT2B (P41595 whole entry): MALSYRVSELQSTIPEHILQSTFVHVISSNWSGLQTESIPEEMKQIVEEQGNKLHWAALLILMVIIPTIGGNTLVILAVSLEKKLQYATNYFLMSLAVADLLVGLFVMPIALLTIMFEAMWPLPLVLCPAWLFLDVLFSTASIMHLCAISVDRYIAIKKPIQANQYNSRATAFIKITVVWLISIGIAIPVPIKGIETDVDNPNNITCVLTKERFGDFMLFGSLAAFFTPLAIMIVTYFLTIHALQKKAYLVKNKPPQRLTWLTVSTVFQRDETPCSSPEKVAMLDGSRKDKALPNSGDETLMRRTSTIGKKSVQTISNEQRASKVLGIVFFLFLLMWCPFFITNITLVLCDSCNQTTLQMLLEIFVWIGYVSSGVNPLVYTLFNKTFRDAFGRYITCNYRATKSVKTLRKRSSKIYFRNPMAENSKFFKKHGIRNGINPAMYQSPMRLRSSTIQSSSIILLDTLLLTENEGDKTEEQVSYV
Chain of rat 5-HT2A receptors (P14842 whole entry): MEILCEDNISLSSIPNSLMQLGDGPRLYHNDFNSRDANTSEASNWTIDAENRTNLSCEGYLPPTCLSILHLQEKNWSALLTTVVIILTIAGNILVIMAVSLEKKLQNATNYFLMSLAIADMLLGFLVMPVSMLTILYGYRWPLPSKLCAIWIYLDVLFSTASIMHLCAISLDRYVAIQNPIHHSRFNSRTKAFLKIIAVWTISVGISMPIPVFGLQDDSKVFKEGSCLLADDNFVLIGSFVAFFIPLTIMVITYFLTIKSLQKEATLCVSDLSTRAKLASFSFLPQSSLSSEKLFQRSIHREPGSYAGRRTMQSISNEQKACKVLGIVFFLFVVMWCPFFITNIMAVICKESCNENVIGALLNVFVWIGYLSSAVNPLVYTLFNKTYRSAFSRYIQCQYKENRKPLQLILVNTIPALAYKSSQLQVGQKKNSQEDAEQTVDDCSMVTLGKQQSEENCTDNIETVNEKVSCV
T2 sequence (P14842 whole entry): as above

`COc1cc(CCN)c(OC)cc1Br` [2C-B]: the inhibition constant Ki on 5-HT2A [1] is 0.88 nM; at rat 5-HT2A receptors, 0.66 nM. The EC50 on 5-HT2A [2] was 2.1 nM; at 5-HT2B, 57 nM. Further, the “functional activity at the 5-HT2A receptor” value on 5-HT2A [3] is “partial agonist”. Also, on 5-HT2A receptors, the “functional activity in 5-HT2A-mediated inward current recordings” value is “antagonist”. Also, the “oral activity (dose)” value in assay [4] is 12 to 24 mg.
In the case of `NC1=N[C@H](O)[C@H]2[C@H]3O[C@]4(O)O[C@@H]([C@@H](O)[C@@]2(N1)[C@@H]4O)[C@]3(O)CO` [TTX, Tetrodotoxin, reference compound], at human Nav1.1 and Navβ1, the “Normalized Peak INa Inhibition” value was determined as 0.870 ± 0.02, the “Peak INa Density” value is recorded as −56.3 ± 9.4 pA/pF, the “Peak INa Density @ −20 mV” value is listed as −15.84±2.16 pA/pF and the “reduction of baseline peak INa” value was determined as 87±2%.
